Reference: US20180296523A1, “USE OF POLYMETHOXYLATED FLAVONES TO AMELIORATE CIRCADIAN RHYTHM DISORDERS” (THE BOARD OF REGENTS OF THE UNIVERSITY OF TEXAS SY, priority 2017, published 2018)
Entries after “also recorded” stand apart in the source; their conditions may differ.

Legend:
[1] = system: PER2::Luc Clock^Δ19/Δ19 fibroblast cells; assay: Reporter rhythm in homozygous Clock^Δ19/Δ19 reporter cells; format: cell-based, mouse; conditions: clock-disrupted homozygous Clock^Δ19/Δ19 cells
[2] = system: db/db and db/db Clock^Δ19/Δ19 mice; assay: db/db diabetic mice and db/db Clock^Δ19/Δ19 double-mutant mice; format: in vivo, mouse
Description: Weekly body weight was monitored in different treatment mice for 10 weeks. Body mass composition was measured at the end of experiments using a minispec mqNMR spectrometer (Bruker Optics, Texas) (Garcia et al., 2013). A control group of mice were fed with regular chow diet (Purina 5001) in parallel with the two treatment groups in HFD. For db/db and db/db Clock^Δ19/Δ19 mice, male mice at 6-8 weeks of age were group-housed (2-3/cage) and maintained on regular chow diets. Mice were subjected to oral gavage with either DMSO or NOB as described above.
Serum samples were obtained at ZT2 from treated mice as previously described (Jeong et al., 2015). Hepatic triglyceride and cholesterol were extracted as previously described (Liu et al., 2012). The triglyceride and cholesterol levels in liver and serum were assessed by Serum Triglyceride Determination Kit (Sigma) and Cholesterol Assay Kit (Cayman), respectively. The assay plates were read by a TECAN M200 instrument (Tecan) following the manufacturer's instructions.
Glucose tolerance test (GTT) and insulin tolerance test (ITT) were performed largely as described (He et al., 2015; Jeong et al., 2015). Briefly, after overnight and 5-hr fasting, GTT and ITT were conducted at ZT2 and ZT8 respectively. Glucose levels were measured from tail blood before and 15, 30, 60, or 120 min after injection of either 1 g/kg glucose or 0.75 U/kg insulin (Sigma) at ZT2 and ZT8 respectively by using the ONETOUCH UltraMini blood glucose monitoring system (LifeScan). Serum insulin levels were measured with the Rat/Mouse Insulin Elisa kit (Millipore) according to the manufacturer's instructions. The plasma samples were collected at ZT2 as described above for lipid assays.

[3] = system: Bmal1 promoter (RORE) with RORα or RORγ; assay: Bmal1 promoter-driven luciferase reporter in Hepa1-6 cells; format: cell-based, mouse
Description: Plasmids containing the retinoic acid-related orphan receptor response element (RORE) from mouse Bmal1 promoter, pcDNA3.1B-G4DBD-RORαLBD and pcDNA3.1BG4DBD-RORγLBD were constructed in our lab. Specifically, the 1960 bp sequences (−1830/+130) of the mouse Bmal1 promoter harboring either WT ([…] (SEQ ID NO:1) and […] (SEQ ID NO:2)) or mutant ([…] (SEQ ID NO:3)) RORE were PCR amplified from mouse genomic DNA and cloned into pGL3-promoter luciferase vector. For expression of RORα or RORγ-GAL4 protein, mouse RORα-LBD (aa 261-523) or RORγ-LBD (aa 250-516) were PCR amplified from mouse genomic DNA and cloned into a GAL4-DBD-containing vector, pcDNA3.1B.
For mammalian one-hybrid assays, HEK293T cells were cotransfected with pcDNA3.1B-G4DBD-RORα/γLBD, pGL4.31 and TK promoter Renilla luciferase construct (tK.pRL). To investigate the regulation of the Bmal1 reporter, Hepa1-6 cells were cotransfected with Bmal1-WT or mutant RORE reporter plasmids, RORα, RORγ or Rev-erbα expression construct along with tK.pRL. Mouse and human siRNA targeting RORα and RORγ were purchased from Santa Cruz. Transfection was performed by Lipfectamine 2000 reagent (Invitrogen) Twenty-four hours after transfection, the cells were treated with vehicle or NOB. Lysates were collected 24 h after treatment, and firefly and Renilla luciferase activities were measured by using a Dual-Luciferase Reporter System (Promega).

[4] = other studies (Kumar et al., 2012; Singh et al., 2011); cited from earlier work
Cps1 gene = conditions: Clock^Δ19/Δ19 mutant mice; cited from earlier work

## COc1ccc(-c2cc(=O)c3c(OC)c(OC)c(OC)c(OC)c3o2)cc1OC [nobiletin]
[1]
  restoring reporter rhythm: ineffective in restoring the rhythm; also recorded: not able to rescue reporter rhythms
[2]; db/db Clock^Δ19/Δ19 double-mutant mice, in contrast to db/db
  overall metabolic response to treatment: markedly attenuated response
[2]; db/db Clock^Δ19/Δ19 mutant mice
  circulating insulin levels: strongly reduced circulating insulin levels
[2]; db/db mice
  circulating insulin levels: strongly reduced circulating insulin levels
  fasting glucose levels: lowered fasting glucose levels
  glucose tolerance (GTT): improved
  insulin sensitivity (ITT): improved
  serum total cholesterol (TC): reduced
  serum total triglyceride (TG): reduced
[2]; db/db mice, RC, 10 weeks
  body weight gain: strongly blunted body weight gain
[3]
  Bmal1 reporter activation with ectopic expression of REV-ERBα: abolished reporter activation
[3]; Hepa1-6 cells
  induction of Bmal1 reporter after knockdown of RORα/γ by siRNAs: abrogated the nobiletin-mediated induction
[3]; WT RORE, in the presence of RORα or RORγ
  Bmal1 promoter-driven luciferase reporter activity: dose-dependently increase
[4]
  NOB levels 24 hr after administration: able to measure NOB levels 24 hr after administration
Cps1 gene
  transcriptional induction of the Cps1 gene: impaired
